Source: patent US20170173002A1, “Compositions and Methods for Treating an Infection” (CMPD LICENSING, LLC, priority 2015, published 2017)

Tests used:
Pseudomonas aeruginosa = assay: Expected efficacy of antibiotic agents; conditions: expected efficacy against Pseudomonas aeruginosa
Shigella boydii = assay: Expected efficacy of antibiotic agents; conditions: expected efficacy against Shigella boydii
Bordetella pertussis = assay: Expected efficacy of antibiotic agents; conditions: expected efficacy against Bordetella pertussis
[1] = test system: Corynebacterium urealyticum; assay: Expected efficacy of antibiotic agents; conditions: expected efficacy against Corynebacterium urealyticum
Enterobacter aerogenes = assay: Expected efficacy of antibiotic agents; conditions: expected efficacy against Enterobacter aerogenes
Salmonella typhi = assay: Expected efficacy of antibiotic agents; conditions: expected efficacy against Salmonella typhi
Moraxella catarrhalis = assay: Expected efficacy of antibiotic agents; conditions: expected efficacy against Moraxella catarrhalis
Citrobacter freundii = assay: Expected efficacy of antibiotic agents; conditions: expected efficacy against Citrobacter freundii
Enterobacter sakazakii = assay: Expected efficacy of antibiotic agents; conditions: expected efficacy against Enterobacter sakazakii
Proteus vulgaris = assay: Expected efficacy of antibiotic agents; conditions: expected efficacy against Proteus vulgaris
Providencia rettgeri = assay: Expected efficacy of antibiotic agents; conditions: expected efficacy against Providencia rettgeri
Klebsiella pneumoniae = assay: Expected efficacy of antibiotic agents; conditions: expected efficacy against Klebsiella pneumoniae
Vibrio cholerae = assay: Expected efficacy of antibiotic agents; conditions: expected efficacy against Vibrio cholerae
Citrobacter diversus = assay: Expected efficacy of antibiotic agents; conditions: expected efficacy against Citrobacter diversus
Neisseria gonorrhoeae = assay: Expected efficacy of antibiotic agents; conditions: expected efficacy against Neisseria gonorrhoeae
Streptococcus pyogenes = assay: Expected efficacy of antibiotic agents; conditions: expected efficacy against Streptococcus pyogenes
Morganella morganii = assay: Expected efficacy of antibiotic agents; conditions: expected efficacy against Morganella morganii
Rickettsiae = conditions: expected efficacy against Rickettsiae
Klebsiella oxytoca = assay: Expected efficacy of antibiotic agents; conditions: expected efficacy against Klebsiella oxytoca
Francisella tularensis = conditions: expected efficacy against Francisella tularensis
Proteus mirabilis = assay: Expected efficacy of antibiotic agents; conditions: expected efficacy against Proteus mirabilis
Acinetobacter baumannii = assay: Expected efficacy of antibiotic agents; conditions: expected efficacy against Acinetobacter baumannii
Shigella flexneri = assay: Expected efficacy of antibiotic agents; conditions: expected efficacy against Shigella flexneri
Campylobacter jejuni = assay: Expected efficacy of antibiotic agents; conditions: expected efficacy against Campylobacter jejuni
Haemophilus ducreyi = assay: Expected efficacy of antibiotic agents; conditions: expected efficacy against Haemophilus ducreyi
Haemophilus influenzae = assay: Expected efficacy of antibiotic agents; conditions: expected efficacy against Haemophilus influenzae
Providencia stuartii = assay: Expected efficacy of antibiotic agents; conditions: expected efficacy against Providencia stuartii
Brucella species = conditions: expected efficacy against Brucella species
Shigella dysenteriae = assay: Expected efficacy of antibiotic agents; conditions: expected efficacy against Shigella dysenteriae
Escherichia coli = assay: Expected efficacy of antibiotic agents; conditions: expected efficacy against Escherichia coli
[2] = test system: Methicillin resistant staph aureus (MRSA); assay: Expected efficacy of antibiotic agents; conditions: expected efficacy against Methicillin resistant staph aureus (MRSA)
Acinetobacter lwoffii = assay: Expected efficacy of antibiotic agents; conditions: expected efficacy against Acinetobacter lwoffii
Enterobacter cloacae = assay: Expected efficacy of antibiotic agents; conditions: expected efficacy against Enterobacter cloacae
Yersinia pestis = conditions: expected efficacy against Yersinia pestis
Corynebacterium jeikeium = assay: Expected efficacy of antibiotic agents; conditions: expected efficacy against Corynebacterium jeikeium
[3] = test system: Acinetobacter calcoaceticus; assay: Expected efficacy of antibiotic agents; conditions: expected efficacy against Acinetobacter calcoaceticus
Neisseria meningitidis = assay: Expected efficacy of antibiotic agents; conditions: expected efficacy against Neisseria meningitidis
Shigella sonnei = assay: Expected efficacy of antibiotic agents; conditions: expected efficacy against Shigella sonnei
Bartonella bacilliformis = assay: Expected efficacy of antibiotic agents; conditions: expected efficacy against Bartonella bacilliformis
Clostridium perfringens = conditions: expected efficacy against Clostridium perfringens
[4] = test system: Staphylococcus aureus (MSSA); assay: Expected efficacy of antibiotic agents; conditions: expected efficacy against Staphylococcus aureus (MSSA)
Legionella pneumophila = conditions: expected efficacy against Legionella pneumophila
Pseudomonas fluorescens = assay: Expected efficacy of antibiotic agents; conditions: expected efficacy against Pseudomonas fluorescens
Serratia marcescens = assay: Expected efficacy of antibiotic agents; conditions: expected efficacy against Serratia marcescens
[5] = test system: Klebsiella (Calymmatobacterium) granulomatis; assay: Expected efficacy of antibiotic agents; conditions: expected efficacy against Klebsiella (Calymmatobacterium) granulomatis
Candida species = assay: Expected efficacy of antifungal agents; conditions: expected efficacy against Candida species
Chlamydia psittaci = conditions: expected efficacy against Chlamydia psittaci
Chlamydia pneumoniae = assay: Expected efficacy of antibiotic agents; conditions: expected efficacy against Chlamydia pneumoniae
Streptococcus pneumoniae = assay: Expected efficacy of antibiotic agents; conditions: expected efficacy against Streptococcus pneumoniae
Chlamydia trachomatis = assay: Expected efficacy of antibiotic agents; conditions: expected efficacy against Chlamydia trachomatis
Streptococcus agalactiae = assay: Expected efficacy of antibiotic agents; conditions: expected efficacy against Streptococcus agalactiae
Bacteroides fragilis = assay: Expected efficacy of antibiotic agents; conditions: expected efficacy against Bacteroides fragilis
[6] = test system: Staphylococcus epidermidis; assay: Expected efficacy of antibiotic agents; conditions: expected efficacy against Staphylococcus epidermidis
Enterococcus faecium = assay: Expected efficacy of antibiotic agents; conditions: expected efficacy against Enterococcus faecium
Mycoplasma pneumoniae = assay: Expected efficacy of antibiotic agents; conditions: expected efficacy against Mycoplasma pneumoniae
Enterococcus faecalis = assay: Expected efficacy of antibiotic agents; conditions: expected efficacy against Enterococcus faecalis
Clostridium difficile = assay: Expected efficacy of antibiotic agents; conditions: expected efficacy against Clostridium difficile

Compound: C/C(=C\C(=O)OCCCCCCCCC(=O)O)C[C@@H]1OC[C@H](C[C@@H]2O[C@H]2[C@@H](C)[C@H](C)O)[C@@H](O)[C@H]1O [Bactroban]
- Efficacy (Pseudomonas aeruginosa): no
- Efficacy (Shigella boydii): no
- Efficacy (Bordetella pertussis): no
- Efficacy [1]: no
- Efficacy (Enterobacter aerogenes): no
- Efficacy (Salmonella typhi): no
- Efficacy (Moraxella catarrhalis): no
- Efficacy (Citrobacter freundii): no
- Efficacy (Enterobacter sakazakii): no
- Efficacy (Proteus vulgaris): no
- Efficacy (Providencia rettgeri): no
- Efficacy (Klebsiella pneumoniae): no
- Efficacy (Vibrio cholerae): no
- Efficacy (Citrobacter diversus): no
- Efficacy (Neisseria gonorrhoeae): no
- Efficacy (Streptococcus pyogenes): yes
- Efficacy (Morganella morganii): no
- Efficacy (Rickettsiae): no
- Efficacy (Klebsiella oxytoca): no
- Efficacy (Francisella tularensis): no
- Efficacy (Proteus mirabilis): no
- Efficacy (Acinetobacter baumannii): no
- Efficacy (Shigella flexneri): no
- Efficacy (Campylobacter jejuni): no
- Efficacy (Haemophilus ducreyi): no
- Efficacy (Haemophilus influenzae): no
- Efficacy (Providencia stuartii): no
- Efficacy (Brucella species): no
- Efficacy (Shigella dysenteriae): no
- Efficacy (Escherichia coli): no
- Efficacy [2]: yes
- Efficacy (Acinetobacter lwoffii): no
- Efficacy (Enterobacter cloacae): no
- Efficacy (Yersinia pestis): no
- Efficacy (Corynebacterium jeikeium): no
- Efficacy [3]: no
- Efficacy (Neisseria meningitidis): no
- Efficacy (Shigella sonnei): no
- Efficacy (Bartonella bacilliformis): no
- Efficacy (Clostridium perfringens): no
- Efficacy [4]: yes
- Efficacy (Legionella pneumophila): no
- Efficacy (Pseudomonas fluorescens): no
- Efficacy (Serratia marcescens): no
- Efficacy [5]: no

Compound: C[C@@H]1[C@H](O)[C@@H](C)/C=C/C=C/CC/C=C/C=C/C=C/C=C/C(O[C@H]2O[C@H](C)[C@@H](O)[C@H](N)[C@@H]2O)CC2O[C@](O)(CC(O)C(O)CCC(O)CC(O)CC(O)CC(=O)O[C@H]1C)CC(O)C2C(=O)O (stereo partly drawn) [Nystatin, nystatin]
- Efficacy (Candida species): yes

Compound: CC[C@H]1OC(=O)[C@H](C)[C@@H](O[C@H]2C[C@@](C)(OC)[C@@H](O)[C@H](C)O2)[C@H](C)[C@@H](O[C@@H]2O[C@H](C)C[C@H](N(C)C)[C@H]2O)[C@](C)(O)C[C@@H](C)CN(C)[C@H](C)[C@@H](O)[C@]1(C)O [Azithromycin]
- Efficacy (Chlamydia psittaci): yes
- Efficacy (Pseudomonas aeruginosa): no
- Efficacy (Bordetella pertussis): yes
- Efficacy (Enterobacter aerogenes): no
- Efficacy (Chlamydia pneumoniae): yes
- Efficacy (Streptococcus pneumoniae): yes
- Efficacy (Moraxella catarrhalis): yes
- Efficacy (Citrobacter freundii): no
- Efficacy (Enterobacter sakazakii): no
- Efficacy (Proteus vulgaris): no
- Efficacy (Chlamydia trachomatis): yes
- Efficacy (Providencia rettgeri): no
- Efficacy (Streptococcus agalactiae): yes
- Efficacy (Bacteroides fragilis): no
- Efficacy (Klebsiella pneumoniae): no
- Efficacy [6]: yes
- Efficacy (Enterococcus faecium): no
- Efficacy (Vibrio cholerae): yes
- Efficacy (Citrobacter diversus): no
- Efficacy (Streptococcus pyogenes): yes
- Efficacy (Morganella morganii): no
- Efficacy (Rickettsiae): yes
- Efficacy (Klebsiella oxytoca): no
- Efficacy (Francisella tularensis): no
- Efficacy (Proteus mirabilis): no
- Efficacy (Mycoplasma pneumoniae): yes
- Efficacy (Acinetobacter baumannii): no
- Efficacy (Campylobacter jejuni): yes
- Efficacy (Haemophilus influenzae): yes
- Efficacy (Providencia stuartii): no
- Efficacy (Enterococcus faecalis): no
- Efficacy (Brucella species): no
- Efficacy (Escherichia coli): no
- Efficacy [2]: no
- Efficacy (Acinetobacter lwoffii): no
- Efficacy (Enterobacter cloacae): no
- Efficacy (Corynebacterium jeikeium): no
- Efficacy [3]: no
- Efficacy (Neisseria meningitidis): yes
- Efficacy (Bartonella bacilliformis): yes
- Efficacy (Clostridium perfringens): no
- Efficacy [4]: yes
- Efficacy (Clostridium difficile): no
- Efficacy (Legionella pneumophila): yes
- Efficacy (Pseudomonas fluorescens): no
- Efficacy (Serratia marcescens): no
- Efficacy [5]: no
